Source: US20120028976A1, “PHARMACOKINETICALLY-BASED DOSING REGIMENTS OF A THROMBIN RECEPTOR ANTAGONIST” (priority 2008, published 2012)
Like-named read-outs stand apart in the source and are kept apart here.

Key:
[1] = Rising single dose (RSD) study: pharmacokinetics of orally administered COMPOUND 1 in healthy subjects; type: in vivo, human; settings: for Cmax / AUC(0-t) / Tmax: po; for time for which plasma concentrations were quantifiable: LLOQ 0.1 ng/ml
Description: (§1) Phase I clinical studies were designed to evaluate the pharmacokinetics of COMPOUND 1 in healthy subjects after rising single and multiple doses. The study included a randomized, evaluator-blind, placebo-controlled, rising single dose (“RSD”) study and a rising multiple dose (“RSM”) study of orally administered COMPOUND 1 in healthy subjects.
(§2) In the single-dose study, 50 healthy males were enrolled into 6 sequential cohorts and randomized to receive in ascending dose manner placebo (n=2-3/group) or oral COMPOUND 1 (0.25, 1, 5, 10, 20 and 40 mg; n=5-6/group). In the multiple-dose study, 36 healthy subjects were enrolled into 3 sequential cohorts and randomized to receive in ascending-dose manner placebo (n=4/group) or oral COMPOUND 1(1, 3, and 5 mg OD in the morning for 28 days, n=8/group). A fourth cohort in the same study (n=12) was randomized to receive a single loading dose of COMPOUND 1, 10 mg (n=6) or 20 mg (n=6) on Day 1, followed by maintenance doses of 1 mg daily for 6 days. Measured and derived pharmacokinetic parameters were used to assess the pharmacokinetic profile. The doses were administered using appropriate combinations of the capsule formulations disclosed in Table 1.
Several observations were made from the data collected in the RSD Study. […] Tmax ranged from 0.5 to 2 hrs after dosing.
To estimate the terminal-phase half-life (t½) of COMPOUND 1, samples were collected from subjects in the 20 mg and 40 mg dose groups for up to 64 days after dosing. […] Plasma concentrations were quantifiable for up to 53 days in subjects administered 20 mg and up to 62 days in subjects administered 40 mg.

clinical = settings: human, in vivo
Description: as §1, §2
Variability was low to moderate.
The RMD study also allowed evaluation of COMPOUND 1 accumulation. Mean accumulation index (R) values ranged from 4.72 to 6.37. The effective half-lives determined from R values ranged from 59.8 to 141 hrs.

[2] = single oral dose 40 mg, maximum individual value
[3] = single oral dose 40 mg, minimum individual value

time to maximal plasma levels ([1]; across all doses in both studies (single and multiple oral dosing)): 60 to 90 min | half-life ([1]; male, human, plasma, oral, subjects of the 20 mg and 40 mg single dose groups, samples up to 64 days after dosing, read-out: apparent terminal-phase half-life (t1/2)): 5.25 to 11.2 days | Cmax ([1]; male, human, plasma, 0.25 mg, single oral dose 0.25 mg, n=6, healthy males, plasma, mean (CV %), read-out: Cmax): 2.23 ng/mL | AUC(0-t) ([1]; male, human, plasma, 0.25 mg, single oral dose 0.25 mg, n=6, mean (CV %), read-out: AUC(0-72 hr)): 33.7 ng·h/mL | Tmax ([1]; male, human, plasma, 0.25 mg, single oral dose 0.25 mg, n=6, value (range), read-out: Tmax): 1 h | AUC(0-t) ([1]; male, human, plasma, 1 mg, single oral dose 1 mg, n=6, mean (CV %), read-out: AUC(0-72 hr)): 142 ng·h/mL | Cmax ([1]; male, human, plasma, 1 mg, single oral dose 1 mg, n=6, mean (CV %), read-out: Cmax): 9.29 ng/mL | Tmax ([1]; male, human, plasma, 1 mg, single oral dose 1 mg, n=6, value (range), read-out: Tmax): 1.25 h | AUC(0-t) ([1]; male, human, plasma, 5 mg, single oral dose 5 mg, n=6, mean (CV %), read-out: AUC(0-72 hr)): 740 ng·h/mL | Cmax ([1]; male, human, plasma, 5 mg, single oral dose 5 mg, n=6, mean (CV %), read-out: Cmax): 51.4 ng/mL | Tmax ([1]; male, human, plasma, 5 mg, single oral dose 5 mg, n=6, value (range), read-out: Tmax): 0.75 h | AUC(0-t) ([1]; male, human, plasma, 10 mg, single oral dose 10 mg, n=6, mean (CV %), read-out: AUC(0-72 hr)): 1510 ng·h/mL | Cmax ([1]; male, human, plasma, 10 mg, single oral dose 10 mg, n=6, mean (CV %), read-out: Cmax): 99.2 ng/mL | Tmax ([1]; male, human, plasma, 10 mg, single oral dose 10 mg, n=6, value (range), read-out: Tmax): 1.5 h | AUC(0-t) ([1]; male, human, plasma, 20 mg, single oral dose 20 mg, n=5, mean (CV %), read-out: AUC(0-72 hr)): 3350 ng·h/mL | Cmax ([1]; male, human, plasma, 20 mg, single oral dose 20 mg, n=5, mean (CV %), read-out: Cmax): 183 ng/mL | Tmax ([1]; male, human, plasma, 20 mg, single oral dose 20 mg, n=5, value (range), read-out: Tmax): 1.5 h | Tmax ([1]; male, human, plasma, 40 mg, loading dose 40 mg, single oral (Table 3), read-out: Tmax range): 0.5 to 1.5 h | AUC(0-t) ([1]; male, human, plasma, 40 mg, loading dose 40 mg, single oral, range of individual values (Table 3), read-out: AUC(0-72 hr) range): 4740 to 7510 ng·h/mL | Cmax ([1]; male, human, plasma, 40 mg, loading dose 40 mg, single oral, range of individual values (Table 3), read-out: Cmax range): 238 to 511 ng/mL | AUC(0-t) ([1]; male, human, plasma, 40 mg, single oral dose 40 mg, n=5, mean (CV %), read-out: AUC(0-72 hr), Mean): ~6030 ng·h/mL | Cmax ([1]; male, human, plasma, 40 mg, single oral dose 40 mg, n=5, mean (CV %), read-out: Cmax, Mean): ~376 ng/mL | Tmax ([1]; male, human, plasma, 40 mg, single oral dose 40 mg, n=5, value (range), read-out: Tmax, Mean): 1.5 h | Tmax ([1]; male, human, plasma, 40 mg, single oral dose 40 mg, Tmax corresponding to maximum individual Cmax, read-out: Tmax, Max): 1.5 h | Tmax ([1]; male, human, plasma, 40 mg, single oral dose 40 mg, Tmax corresponding to minimum individual Cmax, read-out: Tmax): 0.5 h | Tmax ([1]; male, human, plasma, single oral doses 0.25 to 40 mg, all dose groups, read-out: Tmax range after dosing): 0.5 to 2 h | dose relation of exposure ([1]; single doses up to 40 mg, FIG. 2): dose related | time for which plasma concentrations were quantifiable ([1]; single oral dose 20 mg): up to 53 days | time for which plasma concentrations were quantifiable ([1]; single oral dose 40 mg): up to 62 days | AUC(0-72 hr), Max [1, 2]: 7508 ng·h/mL | Cmax, Max [1, 2]: 511 ng/mL | AUC(0-72 hr), Min [1, 3]: 4745 ng·h/mL | Cmax, Min [1, 3]: 238 ng/mL | coefficient of variability (CV) for AUC(0-24 h) (clinical): 14-34% | dose relation of exposure (clinical): increased in a dose-related manner | AUC(0-24 hr) Mean (clinical; 1 mg): 58.5 ng·h/mL | Cmax Mean (clinical; 1 mg): 9.78 ng/mL | AUC(0-24 hr) Mean (clinical; 3 mg): 225 ng·h/mL | Cmax (clinical; 3 mg, Cmax Mean): 38.2 ng/mL | Tmax (clinical; 3 mg, Tmax Median): 1 h | AUC(0-24 hr) Mean (clinical; 5 mg): 315 ng·h/mL | Cmax Mean (clinical; 5 mg): 56.4 ng/mL | effective half-lives determined from R values (clinical; 5 mg): 60 to 141 h | Tmax (clinical; 5 mg, Tmax Median): 1 h | half-life (clinical; 5 mg, effective half-lives determined from R values): 2.49 to 5.88 days | Mean accumulation index (R) values, range over dose groups (clinical; 28 days): 4.72-6.37 | half-life (clinical; Mean terminal-phase half-life (t1/2), range over dose groups): 7.21 to 11.2 days | Tmax (clinical; Median Tmax values, range over dose groups): 1 to 1.5 h | Tmax (clinical; Tmax Median): 1 h
Compound: CCOC(=O)N[C@@H]1CC[C@@H]2[C@@H](C1)C[C@H]1C(=O)O[C@H](C)[C@H]1[C@H]2/C=C/c1ccc(-c2cccc(F)c2)cn1 [COMPOUND 1]
